Paper PMC3910367 (Science signaling, 2013)
Like-named read-outs stand apart in the source and are kept apart here.

Assays:
[1] = molecular target: Y38G PH domain mutant of Akt (Homo sapiens, UniProt P31749, Y38G); assay: SPR binding to Y38G Akt PH domain mutant; conditions: versus wild-type PH domain
[2] = system: mTORC2; assay: Western blot of mTORC2 components and downstream targets; format: cell-based; conditions: fig. S2C
[3] = system: LNCaP-abl cells; assay: MTT viability assay in LNCaP-abl cells; format: cell-based; conditions: read-out: IC50, antiproliferative effect, fig. S5D
[4] = system: LNCaP cells; assay: Cholesterol content of membrane subfractions; format: cell-based; conditions: fractions 3 and 4
[5] = molecular target: PH domain of Akt (Homo sapiens, UniProt P31749); assay: SPR binding to GST-tagged PH domain of Akt; conditions: read-out: Kd, wild-type Akt PH domain
[6] = system: normal prostate epithelial cells; assay: MTT viability assay in normal prostate epithelial cells; format: cell-based; conditions: for apoptosis in normal prostate epithelial cells: fig. S1A
[7] = system: Akt; assay: Western blot of Akt phosphorylation in prostate cancer cells; format: cell-based; conditions: for phosphorylation at Ser473 in Akt / phosphorylation at Thr308 in Akt: LNCaP and PC-3 cells, 24 hours; for concentrations required to induce PHLPP1-mediated Akt inhibition: prostate cancer cells
[8] = system: LNCaP and PC-3 cells; assay: MTT viability assay in prostate cancer cells; format: cell-based; conditions: read-out: IC50, antiproliferative effect (cell viability)
[9] = system: LNCaP cells; format: cell-based; conditions: 24 hours
[10] = molecular target: T1, PH domain of PHLPP1 (Homo sapiens, UniProt O60346); assay: SPR binding to GST-tagged PH domain of PHLPP1
T1 sequence (O60346 536-636 limits assumed): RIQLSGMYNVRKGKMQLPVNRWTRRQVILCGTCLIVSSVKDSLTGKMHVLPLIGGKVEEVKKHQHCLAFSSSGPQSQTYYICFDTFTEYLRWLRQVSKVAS

[11] = system: PIP3; assay: Radiometric analysis of phosphoinositide production; format: cell-based; conditions: LNCaP cells, 500 μM, 6 hours

Sequence of PH domain of Akt (P31749 5-108 limits assumed): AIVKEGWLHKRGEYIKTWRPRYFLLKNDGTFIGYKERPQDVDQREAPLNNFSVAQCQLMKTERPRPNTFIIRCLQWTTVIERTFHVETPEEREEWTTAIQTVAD
Sequence of Y38G PH domain mutant of Akt (P31749 5-108 Y38G limits assumed): as the sequence (P31749 5-108 limits assumed) above, with Y34G counted along it

Compound	effect of Y38G mutation on binding affinity for the Akt PH domain [1]	phosphorylation of SGK or PKCα (mTORC2 downstream targets) [2]	IC50 [3] [µM]	reduction of cholesterol content in raft domains [4] [%]	Kd [5] [µM]	IC50 ([6]; read-out: IC50, cell viability, MTT, 24 hours) [µM]	phosphorylation at Ser473 in Akt [7]	phosphorylation at Thr308 in Akt [7]	IC50 ([8]; LNCaP and PC-3 cells, MTT, 24 hours, serum-free medium) [µM]	decrease in phosphorylation of Ser473 in Akt in non-raft fractions [9]	increase in association of PHLPP1 with the membrane in non-raft fractions [9]	binding to PH domains of Akt and PHLPP1 compared [10]	PIP3 concentrations [11]	apoptosis in normal prostate epithelial cells [6]	concentrations required to induce PHLPP1-mediated Akt inhibition [7]	IC50 ([8]; 24 h) [µM]
Cc1c(C)c2c(c(C)c1O)CCC(C)(CCCC(C)C)O2 (stereo not drawn) [α-VE5]	significantly enhanced	lack of changes	10	≤ 30	3.4	~50	parallel reduction	without disturbing	15 to 20	more than 65%	more than 2.5 fold	equal potency	–	–	–	–
Cc1c(C)c2c(c(C)c1O)CC[C@@](C)(CCC[C@H](C)CCC[C@H](C)CCCC(C)C)O2 [α-tocopherol]	–	no effect	–	–	–	–	dose-dependently reduced	without altering	–	–	–	–	unaffected	resistant	greater than 150 μM	~400
Cc1c(O)cc2c(c1C)O[C@](C)(CCC[C@H](C)CCC[C@H](C)CCCC(C)C)CC2 [γ-tocopherol]	–	no effect	–	–	–	–	dose-dependently reduced	without altering	–	–	–	–	–	resistant	greater than 150 μM	100 to 150
